In ChEMBL document CHEMBL5584239, “Discovery of novel quinoline scaffold selective estrogen receptor degraders (SERDs) for treatment of ER positive breast cancer with enhanced antiproliferative bioactivity through immunogenic cell death (ICD) effects” (Eur J Med Chem, 2024):

Assays:
[1] = biological target: T1, Estrogen receptor (Homo sapiens) (UniProt P03372); experiment: Induction of estrogen receptor degradation in estradiol-stimulated human MCF7 cells assessed as decrease in PGR mRNA level incubated for 24 hrs by RT-qPCR analysis; format: cell-based; conditions: dose 1-10 µM
T1 sequence (whole entry): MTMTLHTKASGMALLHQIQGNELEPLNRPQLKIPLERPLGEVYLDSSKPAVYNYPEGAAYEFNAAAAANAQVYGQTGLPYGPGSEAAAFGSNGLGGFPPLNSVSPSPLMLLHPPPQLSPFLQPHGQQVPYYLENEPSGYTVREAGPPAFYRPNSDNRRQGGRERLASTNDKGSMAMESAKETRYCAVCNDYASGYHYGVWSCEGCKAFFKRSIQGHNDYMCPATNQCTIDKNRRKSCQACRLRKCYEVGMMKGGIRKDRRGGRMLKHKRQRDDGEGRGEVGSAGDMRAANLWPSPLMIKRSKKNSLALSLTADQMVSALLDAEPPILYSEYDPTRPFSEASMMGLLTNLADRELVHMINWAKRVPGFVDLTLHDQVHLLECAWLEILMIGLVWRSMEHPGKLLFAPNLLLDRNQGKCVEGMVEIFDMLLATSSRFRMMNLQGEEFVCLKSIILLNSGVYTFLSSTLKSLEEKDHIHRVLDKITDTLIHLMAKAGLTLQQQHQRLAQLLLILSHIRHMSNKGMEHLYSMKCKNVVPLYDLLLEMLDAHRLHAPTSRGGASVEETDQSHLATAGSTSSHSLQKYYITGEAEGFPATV

[2] = test system: Ishikawa; experiment: Antiproliferative activity against human Ishikawa cells at 20 uM incubated for 3 days by MTT assay relative to control; format: functional; conditions: 72 h, time 3 day
[3] = biological target: T1, Estrogen receptor (Homo sapiens); experiment: Induction of estrogen receptor degradation in estradiol-stimulated human MCF7 cells assessed as decrease in TFF1 mRNA level incubated for 24 hrs by RT-qPCR analysis; format: cell-based; conditions: dose 1-10 µM
[4] = test system: MCF7; experiment: Antiproliferative activity against human MCF7 cells incubated for 5 days by MTT assay; format: functional, cell-based; conditions: MCF7, 120 h
[5] = biological target: T1, Estrogen receptor (Homo sapiens); experiment: Induction of estrogen receptor degradation in estradiol-stimulated human MCF7 cells assessed as decrease in GREB1 mRNA level incubated for 24 hrs by RT-qPCR analysis; format: cell-based; conditions: dose 1-10 µM

Activity [1] | Activity [3] | IC50 [4] | Activity [5] | Structure (SMILES) | inhibition at 20 µM [2]
 |  | 0.59 µM |  | CCc1ccccc1C(=O)c1cnc2cc(O)ccc2c1Oc1cc(C)c(/C=C/C(=O)O)c(C)c1 | 17.3%
 |  | 1.47 µM |  | O=C(O)/C=C/c1ccc(Oc2c(C(=O)c3ccc4occc4c3)cnc3cc(O)ccc23)cc1 | 13.3%
 |  | 3.57 µM |  | CCc1ccccc1C(=O)c1cnc2cc(O)ccc2c1Oc1ccc(/C=C/C(=O)O)c(C)c1 | 13.4%
 |  | 14.1 µM |  | CCc1ccccc1C(=O)c1cnc2cc(O)ccc2c1Oc1ccc(/C=C/C(=O)O)cc1OC | 5.03%
 |  | 3.09 µM |  | COc1ccc(C(=O)c2cnc3cc(O)ccc3c2Oc2ccc(/C=C/C(=O)O)cc2)cc1 | 61.2%
 |  | 0.93 µM |  | Cc1cccc(C)c1C(=O)c1cnc2cc(O)ccc2c1Oc1ccc(/C=C/C(=O)O)cc1 | 23.1%

The remaining lines, values behind:

Structure (SMILES) | Activity [1] | Activity [3] | IC50 [4] | Activity [5] | inhibition at 20 µM [2]
CCc1ccccc1C(=O)c1cnc2cc(O)ccc2c1Oc1ccc(/C=C/C(=O)O)cc1C | Dose-Dependent Effect | Dose-Dependent Effect | 0.45 µM | Dose-Dependent Effect | -6.14%
Cc1cc(Cl)ccc1C(=O)c1cnc2cc(O)ccc2c1Oc1ccc(/C=C/C(=O)O)cc1 |  |  | 0.37 µM |  | 24.9%
Cc1cc(F)cc(C)c1C(=O)c1cnc2cc(O)ccc2c1Oc1ccc(/C=C/C(=O)O)cc1 |  |  | 0.41 µM |  | 35.8%
O=C(O)/C=C/c1ccc(Oc2c(C(=O)c3cccc(F)c3)cnc3cc(O)ccc23)cc1 |  |  | 2.42 µM |  | 26.4%
O=C(O)/C=C/c1ccc(Oc2c(C(=O)c3ccccc3)cnc3cc(O)ccc23)cc1 |  |  | 1.67 µM |  | 11.8%
O=C(O)/C=C/c1ccc(Oc2c(C(=O)c3ccc(F)cc3)cnc3cc(O)ccc23)cc1 |  |  | 4.87 µM |  | 12.5%
